# Measurements from PMC10410440, “Preclinical PK investigation of a novel IDO1/TDO dual inhibitor—SHR9146 in mouse plasma and tissues by LC-MS/MS” (Frontiers in Oncology, 2023).
# Read-outs that look alike come from different tables or passages of the source.
# Test: Plasma pharmacokinetics of SHR9146 in mice (LC-MS/MS, non-compartmental analysis)
# Assay type: in vivo, ICR mice
# Conditions: both sexes, ICR, mouse, plasma; for bioavailability: mice
# Experimental: ICR mice with body weight 16–26 g were supplied by Shanghai Lingchang Biotechnology Co., Ltd. (animal breeding license number SCXK (Shanghai) 2013-0018) and housed at Shanghai Institute of Materia Medica, Chinese Academy of Sciences [animal use license number SYXK (Shanghai) 2015-0027]. The mice used in this study were fasted overnight for 12 h but had free access to water. Food was supplied 4 h post-dose. All experiments in this study were conducted in accordance with the Guidelines for the Care and Use of Laboratory Animals of Shanghai Institute of Materia Medica, Chinese Academy of Sciences.
# A total of 30 mice were randomly assigned into five groups with equal numbers, males and females. One group was intravenously administrated with 5 mg/kg SHR9146 dissolved in […] plus 95% saline (adjusted pH to 4.0) under sterile conditions. The remaining four groups were administered respectively with a single dose of 20 , 40, or 80 mg/kg or multiple doses of 20 mg/kg twice daily for 7 days, by oral gavage of SHR9146 dissolved in 0.5% CMC-Na. Blood samples were obtained from the fossa orbitalis vein at 15 and 30 min and 1.0, 2.0, 4.0, 6.0, 8.0, 10.0, and 24.0 h after oral gavage administration. An additional 5-min time point was included for iv injection, as well as the pre-drug administration time points on the fifth, sixth, and seventh days in the multiple-dose group. The blood samples were collected in EDTA K2 anticoagulant blood collection tubes and centrifuged at 1,000 rpm for 5 min at 4°C. The supernatant plasma samples were thus produced.
# Briefly as follows, an aliquot of 25-μL plasma or tissue homogenate was spiked with 100 μL of internal standard solution (1 μg/mL for plasma, 0.2 μg/mL for tissue homogenate) and 300 μL of methanol added and vortex mixed for 60 s. The mixture was then centrifuged at 14,000 rpm at 4°C for 5.0 min, and the supernatant was diluted with methanol–water (4:1, v/v) in a ratio of 1:9 for the plasma or 1:1 for the tissue homogenate, and 5 μL of the resulting solution was injected for the LC-MS/MS analysis.
# The pharmacokinetic parameters of SHR9146 in mouse plasma were estimated by Phoenix 1.4 software using a non-compartmental model.
# The mean concentration–time curves of SHR9146 in mouse plasma after a single oral gavage dose of 20, 40, or 80 mg/kg, or a single intravenous dose of 5 mg/kg, or the 7th-day steady state after twice-daily multiple oral doses of 20 mg/kg are shown in Figure 5 (Table S6).
# [1] = oral, 40 mg/kg, 40 mg/kg i.g. single, read-out: plasma drug concentration, mean (n=6)
# [2] = oral, 40 mg/kg, 40 mg/kg i.g. single, read-out: plasma drug concentration, individual mice #1-#6
# [3] = oral, 80 mg/kg, 80 mg/kg i.g. single, read-out: plasma drug concentration, individual mice #1-#6
# [4] = oral, 80 mg/kg, 80 mg/kg i.g. single, read-out: plasma drug concentration, mean (n=6)
# [5] = po, 20 mg/kg, 20 mg/kg i.g. bid, 7 days (7th-day steady state), all mice (Totol, 3 male + 3 female)
structure (smiles),measurement,setting,value
OCCn1cc(-c2ccc(N3CCC([C@H]4c5c(F)cccc5-c5cncn54)CC3)cc2)cn1 [SHR9146],concentration at 1 h,[1],9980 ng/mL
same,concentration at 2 h,[1],4920 ng/mL
same,concentration at 3 h,[1],1130 ng/mL
same,concentration at 4 h,[1],4350 ng/mL
same,concentration at 6 h,[1],1010 ng/mL
same,concentration at 8 h,[2],582 ng/mL
same,concentration at 10 h,[2],293 ng/mL
same,concentration at 24 h,[2],136 ng/mL
same,concentration at 0.25 h,"oral, 80 mg/kg, 80 mg/kg i.g. single, 0.25 h, read-out: plasma drug concentration, mean (n=6)",6130 ng/mL
same,concentration at 0.5 h,[3],9320 ng/mL
same,concentration at 0.5 h,[4],11300 ng/mL
same,concentration at 1 h,[4],12900 ng/mL
same,concentration at 2 h,[4],8930 ng/mL
same,concentration at 3 h,[4],4670 ng/mL
same,concentration at 4 h,[4],8950 ng/mL
same,concentration at 6 h,[4],2260 ng/mL
same,concentration at 8 h,[4],1200 ng/mL
same,concentration at 10 h,[4],1700 ng/mL
same,concentration at 24 h,[3],96 ng/mL
same,AUC(0-inf),[5],24400 ng·h/mL
same,Cmax at 7 days,[5],10700 ± 811 ng/mL
same,half-life at 7 days,[5],1.01 h
same,AUC(0-t),"po, 20 mg/kg, 20 mg/kg i.g. bid, 7 days (7th-day steady state), all mice (Totol, 3 male + 3 female), read-out: AUC0-t",24200 ng·h/mL
same,Tmax,"po, 20 mg/kg, 20 mg/kg i.g. bid, 7 days (7th-day steady state), all mice (Totol, 3 male + 3 female), read-out: Tmax",0.833 ± 0.258 h
same,bioavailability,"po, 20 mg/kg, 20 mg/kg i.g. single dose vs 5 mg/kg i.v., one value for the dose, read-out: F (absolute bioavailability)",57.7%
same,AUC(0-inf),"po, 20 mg/kg, 20 mg/kg i.g. single dose, all mice (Totol, 3 male + 3 female)",16300 ng·h/mL
same,AUC(0-t),"po, 20 mg/kg, 20 mg/kg i.g. single dose, all mice (Totol, 3 male + 3 female), read-out: AUC0-t",15600 ng·h/mL
same,Cmax,"po, 20 mg/kg, 20 mg/kg i.g. single dose, all mice (Totol, 3 male + 3 female), read-out: Cmax",9610 ± 3110 ng/mL
same,Tmax,"po, 20 mg/kg, 20 mg/kg i.g. single dose, all mice (Totol, 3 male + 3 female), read-out: Tmax",0.458 ± 0.292 h
same,half-life,"po, 20 mg/kg, 20 mg/kg i.g. single dose, all mice (Totol, 3 male + 3 female), read-out: t1/2 (converted)",0.699 h
same,bioavailability,"po, 40 mg/kg, 40 mg/kg i.g. single dose vs 5 mg/kg i.v., one value for the dose, read-out: F (absolute bioavailability)",40.2%
same,AUC(0-t),"po, 40 mg/kg, 40 mg/kg i.g. single dose, all mice (Totol, 3 male + 3 female), read-out: AUC0-t",21700 ng·h/mL
same,Cmax,"po, 40 mg/kg, 40 mg/kg i.g. single dose, all mice (Totol, 3 male + 3 female), read-out: Cmax",12400 ± 4120 ng/mL
same,Tmax,"po, 40 mg/kg, 40 mg/kg i.g. single dose, all mice (Totol, 3 male + 3 female), read-out: Tmax",1.58 ± 1.28 h
same,bioavailability,"po, 80 mg/kg, 80 mg/kg i.g. single dose vs 5 mg/kg i.v., one value for the dose, read-out: F (absolute bioavailability)",64.7%
same,AUC(0-inf),"po, 80 mg/kg, 80 mg/kg i.g. single dose, all mice (Totol, 3 male + 3 female)",70900 ng·h/mL
same,AUC(0-t),"po, 80 mg/kg, 80 mg/kg i.g. single dose, all mice (Totol, 3 male + 3 female), read-out: AUC0-t",70000 ng·h/mL
same,Cmax,"po, 80 mg/kg, 80 mg/kg i.g. single dose, all mice (Totol, 3 male + 3 female), read-out: Cmax",17100 ± 6290 ng/mL
same,Tmax,"po, 80 mg/kg, 80 mg/kg i.g. single dose, all mice (Totol, 3 male + 3 female), read-out: Tmax",1.5 ± 1.34 h
same,half-life,"po, 80 mg/kg, 80 mg/kg i.g. single dose, all mice (Totol, 3 male + 3 female), read-out: t1/2 (converted)",2.4 h
same,bioavailability,"po, 80 mg/kg, single oral doses 20, 40, 80 mg/kg, read-out: absolute (oral) bioavailability, mean over single oral doses",54.2%
same,bioavailability,"po, 80 mg/kg, single oral doses 20, 40, 80 mg/kg, read-out: absolute (oral) bioavailability, range over single oral doses",40.2 to 64.7%
same,AUC(0-t),"po, after oral dosing from 20 to 80 mg/kg, mouse plasma, read-out: AUC0-t, range over oral doses",15600 to 70000 ng·h/mL
same,Cmax,"po, after oral dosing from 20 to 80 mg/kg, mouse plasma, read-out: Cmax, range over oral doses",8750 to 12900 ng/mL
same,Tmax,"po, after oral gavage, mouse plasma, read-out: mean Tmax, range over oral doses",0.458 to 1.58 h
same,Tmax,"po, oral 20 to 80 mg/kg pooled, mouse plasma, n=6, read-out: Tmax, post-oral",0.79 ± 0.36 h
same,half-life,"po, oral 20 to 80 mg/kg pooled, mouse plasma, n=6, read-out: t1/2, post-oral (converted)",1.59 ± 0.853 h
same,MRT inf,"po, 20 mg/kg i.g. single dose, all mice (Totol, 3 male + 3 female), read-out: MRT0-∞",1.64 h
